Calls of active or inactive are those of the source. The calls are words filed in the database; no cut-off is given here.
Assays:
[1] = Drug metabolism in carboxylesterase (unknown origin) assessed as formation of active photosensitizer 6-amino-5-iodo-1H-phenalen-1-one by measuring increase in fluorescence at 610nM at 10 uM under by fluorescence assay; type: ADME; conditions: human
[2] = Drug metabolism in human MDA-MB-231 cells assessed as increase in SR expression at 5 uM incubated for 2 hrs by flow cytometry analysis; type: ADME, cell-based; conditions: mda-mb-231, 2 h
[3] = tested on: MDA-MB-231; test: Anticancer activity against human MDA-MB-231 cells assessed as reduction in cell viability at 0.01 to 10 uM incubated for 24 hrs by CCK-8 assay; type: functional, cell-based; conditions: dose 0.01-10 µM
[4] = tested on: MDA-MB-231; test: Anticancer activity against human MDA-MB-231 cells assessed as number of dead cells at 2.5 uM incubated for 12 hrs by calcein-AM and propidium iodide staining based flow cytometry; type: functional, cell-based
[5] = Drug uptake BALB/c mouse xenografted with mouse 4T1 cells assessed as increase in fluorescence signal in tumor at 5 mg/kg,IT(Intratumoral) and measured for 1 to 6 hrs by fluorescence imaging analysis; type: ADME, organism-based, Neoplasm; conditions: in vivo, other, time 1-6 hrs
[6] = Drug uptake BALB/c mouse xenografted with mouse 4T1 cells assessed as increase in fluorescence signal in tumor at 5 mg/kg,IT(Intratumoral) and measured for 6 to 24 hrs by fluorescence imaging analysis; type: ADME, organism-based, Neoplasm; conditions: in vivo, other, time 6-24 hrs
[7] = Drug uptake BALB/c mouse xenografted with mouse 4T1 cells assessed as maximum fluorescence intensity in tumor at 5 mg/kg,IT(Intratumoral) and measured at 6 hrs by fluorescence imaging analysis; type: ADME, organism-based, Neoplasm; conditions: in vivo, other
[8] = Drug uptake in tumor BALB/c mouse xenografted with mouse 4T1 cells at 5 mg/kg,IT(Intratumoral) and measured after 6 hrs by fluorescence imaging analysis; type: ADME, organism-based, Neoplasm; conditions: in vivo, other
[9] = Drug uptake in spleen of BALB/c mouse xenografted with mouse 4T1 cells at 5 mg/kg,IT(Intratumoral) and measured after 6 hrs by fluorescence imaging analysis; type: ADME, organism-based; conditions: in vivo, other
[10] = Toxicity in BALB/c mouse xenografted with mouse 4T1 cells assessed as tissue destruction with large spaces in kidney at 5 mg/kg,IT(Intratumoral) for 14 days followed by photoirradiation with 500 to 700nm light (0.5 W) for 6 hrs by Hematoxylin and Eosin staining based microscopy; type: organism-based; conditions: in vivo, other, 342 h, time 14.25 day
[11] = Toxicity in BALB/c mouse xenografted with mouse 4T1 cells assessed as histopathological lesion in liver at 5 mg/kg,IT(Intratumoral) for 14 days by Hematoxylin and Eosin staining based microscopy; type: organism-based; conditions: in vivo, other, 336 h, time 14 day
[12] = Toxicity in BALB/c mouse xenografted with mouse 4T1 cells assessed as histopathological lesion in spleen at 5 mg/kg,IT(Intratumoral) for 14 days by Hematoxylin and Eosin staining based microscopy; type: organism-based; conditions: in vivo, other, 336 h, time 14 day
[13] = Toxicity in BALB/c mouse xenografted with mouse 4T1 cells assessed as histopathological lesion in kidney at 5 mg/kg,IT(Intratumoral) for 14 days by Hematoxylin and Eosin staining based microscopy; type: organism-based; conditions: in vivo, other, 336 h, time 14 day

Structure (SMILES): O=C(CCl)Nc1c(I)cc2c3c(cccc13)C(=O)C=C2
- Drug metabolism [1]: Metabolite_Detected
- Drug metabolism [2]: Metabolite_Detected
- Activity [3]: Active
- Activity [4]: inactive
- Drug uptake [5]: Active
- Drug uptake [6]: Not Active
- Drug uptake [7]: Active
- Drug uptake [8]: Active
- Drug uptake [9]: Not Active
- Activity [10]: Toxic
- Activity [11]: Non-Toxic
- Activity [12]: Non-Toxic
- Activity [13]: Non-Toxic

Reference: ChEMBL document CHEMBL5321227, “Lysosome-targeting phenalenones as efficient type I/II photosensitizers for anticancer photodynamic therapy” (Eur J Med Chem, 2023)
